According to ChEMBL document CHEMBL3785053, “Synthesis and screening of ursolic acid-benzylidine derivatives as potential anti-cancer agents” (Eur J Med Chem, 2016):

Tests used:
[1] = Cytotoxicity against human THP1 cells at 50 uM after 48 hrs by MTT assay; assay type: functional; conditions: THP-1, 48 h, read-out: GI
[2] = Cytotoxicity against human HCT116 cells after 48 hrs by MTT assay; assay type: functional, cell-based; conditions: HCT-116, 48 h
A549 [3] = assay: Cytotoxicity against human A549 cells after 48 hrs by MTT assay; assay type: functional, cell-based; conditions: A549, 48 h
[4] = Cytotoxicity against human THP1 cells after 48 hrs by MTT assay; assay type: functional, cell-based; conditions: THP-1, 48 h
[5] = Cytotoxicity against human FR2 cells after 48 hrs by MTT assay; assay type: cell-based; conditions: FR2, 48 h
[6] = Cytotoxicity against human FR2 cells at 50 uM after 48 hrs by MTT assay; assay type: cell-based; conditions: read-out: GI
MCF7 [7] = assay: Cytotoxicity against human MCF7 cells at 50 uM after 48 hrs by MTT assay; assay type: functional; conditions: MCF7, 48 h, read-out: GI
[8] = Cytotoxicity against human HCT116 cells at 50 uM after 48 hrs by MTT assay; assay type: functional; conditions: HCT-116, 48 h, read-out: GI
MCF7 [9] = assay: Cytotoxicity against human MCF7 cells after 48 hrs by MTT assay; assay type: functional, cell-based; conditions: MCF7, 48 h
A549 [10] = assay: Cytotoxicity against human A549 cells at 50 uM after 48 hrs by MTT assay; assay type: functional; conditions: A549, 48 h, read-out: GI

Row | SMILES | inhibition of growth at 50 µM [1] [%] | IC50 [2] [µM] | IC50 (A549 [3]) [µM] | IC50 [4] [µM] | IC50 [5] [µM] | inhibition at 48 h, 50 µM [6] [%] | inhibition of growth at 50 µM (MCF7 [7]) [%] | inhibition of growth at 50 µM [8] [%] | IC50 (MCF7 [9]) [µM] | inhibition of growth at 50 µM (A549 [10]) [%]
1 | COc1cccc(/C=C2\C[C@]3(C)[C@H]4CC=C5[C@@H]6[C@@H](C)[C@H](C)CC[C@]6(C(=O)O)CC[C@@]5(C)[C@]4(C)CC[C@H]3C(C)(C)C2=O)c1 | 95 | 23 | 0.65 | 12 | 40 | 85 | 98 | 65 | 4.2 | 84
2 | C[C@H]1[C@H](C)CC[C@]2(C(=O)O)CC[C@]3(C)C(=CC[C@@H]4[C@@]5(C)C/C(=C\c6ccc(Br)cc6)C(=O)C(C)(C)[C@@H]5CC[C@]43C)[C@H]12 | 95 | 32 | 15 | 5 | 35 | 95 | 98 | 53 | 5 | 60
3 | C[C@H]1[C@H](C)CC[C@]2(C(=O)O)CC[C@]3(C)C(=CC[C@@H]4[C@@]5(C)C/C(=C\c6ccc([N+](=O)[O-])cc6[N+](=O)[O-])C(=O)C(C)(C)[C@@H]5CC[C@]43C)[C@H]12 | 98 | 5 | 2 | 4.1 | 70 | 95 | 98 | 98 | 4.1 | 98
4 | COc1cc(OC)c(OC)cc1/C=C1\C[C@]2(C)[C@H]3CC=C4[C@@H]5[C@@H](C)[C@H](C)CC[C@]5(C(=O)O)CC[C@@]4(C)[C@]3(C)CC[C@H]2C(C)(C)C1=O | 80 | 12 | 9 | 2 | 40 | 76 | 76 | 85 | 20 | 60
5 | COc1cc(/C=C2\C[C@]3(C)[C@H]4CC=C5[C@@H]6[C@@H](C)[C@H](C)CC[C@]6(C(=O)O)CC[C@@]5(C)[C@]4(C)CC[C@H]3C(C)(C)C2=O)cc(OC)c1OC | 93 | < 0.9 | < 0.9 | 9.1 | 35 | 81 | 99 | 99 | 4 | 99
6 | COc1ccccc1/C=C1\C[C@]2(C)[C@H]3CC=C4[C@@H]5[C@@H](C)[C@H](C)CC[C@]5(C(=O)O)CC[C@@]4(C)[C@]3(C)CC[C@H]2C(C)(C)C1=O | 96 | 2.1 | 0.5 | 0.9 | 8.6 | 85 | 99 | 98 | 5 | 90
7 | C[C@H]1[C@H](C)CC[C@]2(C(=O)O)CC[C@]3(C)C(=CC[C@@H]4[C@@]5(C)CC[C@H](O)C(C)(C)[C@@H]5CC[C@]43C)[C@H]12 [URSOLIC ACID] | 84 | 42 |  | 9.1 | 31 | 66 | 57 | 53 |  | 61
8 | C[C@H]1[C@H](C)CC[C@]2(C(=O)O)CC[C@]3(C)C(=CC[C@@H]4[C@@]5(C)C/C(=C\c6ccc7ccccc7c6)C(=O)C(C)(C)[C@@H]5CC[C@]43C)[C@H]12 | 98 | 0.53 | 16 | 5 | 40 | 75 | 90 | 89 | 21 | 60
9 | O=c1[nH]cc(F)c(=O)[nH]1 [FLUOROURACIL] | 89 | 2.3 | 1.4 | 1.7 |  |  | 92 | 79 | 2 | 82
10 | C[C@H]1[C@H](C)CC[C@]2(C(=O)O)CC[C@]3(C)C(=CC[C@@H]4[C@@]5(C)C/C(=C\c6ccccc6[N+](=O)[O-])C(=O)C(C)(C)[C@@H]5CC[C@]43C)[C@H]12 | 86 | 5 | 6.4 | 1.1 | 44 | 78 | 73 | 91 | 30 | 64
11 | C[C@H]1[C@H](C)CC[C@]2(C(=O)O)CC[C@]3(C)C(=CC[C@@H]4[C@@]5(C)C/C(=C\c6ccc(Cl)cc6)C(=O)C(C)(C)[C@@H]5CC[C@]43C)[C@H]12 | 99 | 15 | 2.9 | 12 | 69 | 99 | 99 | 99 | 4.1 | 99
12 | C[C@H]1[C@H](C)CC[C@]2(C(=O)O)CC[C@]3(C)C(=CC[C@@H]4[C@@]5(C)CCC(=O)C(C)(C)[C@@H]5CC[C@]43C)[C@H]12 [URSONIC ACID] | 88 | 2.3 | 15 | 13 | 24 | 86 | 42 | 53 | 56 | 78
13 | C[C@H]1[C@H](C)CC[C@]2(C(=O)O)CC[C@]3(C)C(=CC[C@@H]4[C@@]5(C)C/C(=C\c6cccc(Cl)c6)C(=O)C(C)(C)[C@@H]5CC[C@]43C)[C@H]12 | 85 | 4.1 | 7 | 5 | 45 | 80 | 70 | 90 | 29 | 65
14 | C[C@H]1[C@H](C)CC[C@]2(C(=O)O)CC[C@]3(C)C(=CC[C@@H]4[C@@]5(C)C/C(=C\c6ccc(O)cc6)C(=O)C(C)(C)[C@@H]5CC[C@]43C)[C@H]12 | 99 | 15 | 2.1 | 4.1 | 70 | 90 | 98 | 99 | 5 | 98
15 | C[C@H]1[C@H](C)CC[C@]2(C(=O)O)CC[C@]3(C)C(=CC[C@@H]4[C@@]5(C)C/C(=C\c6cccc7ccccc67)C(=O)C(C)(C)[C@@H]5CC[C@]43C)[C@H]12 | 90 | 0.64 | 17 | 2.1 | 68 | 97 | 96 | 99 | 12 | 58
